# Reference: patent US9102688B2, “Sulfonaminoquinoline hepcidin antagonists” (Vifor (International) AG, priority 2011, dated 2015)
# Target: T1, human ferroportin (Homo sapiens, UniProt Q9NP59)
# T1 construct: expressed in transfected cells
# T1 sequence (Q9NP59 1-571): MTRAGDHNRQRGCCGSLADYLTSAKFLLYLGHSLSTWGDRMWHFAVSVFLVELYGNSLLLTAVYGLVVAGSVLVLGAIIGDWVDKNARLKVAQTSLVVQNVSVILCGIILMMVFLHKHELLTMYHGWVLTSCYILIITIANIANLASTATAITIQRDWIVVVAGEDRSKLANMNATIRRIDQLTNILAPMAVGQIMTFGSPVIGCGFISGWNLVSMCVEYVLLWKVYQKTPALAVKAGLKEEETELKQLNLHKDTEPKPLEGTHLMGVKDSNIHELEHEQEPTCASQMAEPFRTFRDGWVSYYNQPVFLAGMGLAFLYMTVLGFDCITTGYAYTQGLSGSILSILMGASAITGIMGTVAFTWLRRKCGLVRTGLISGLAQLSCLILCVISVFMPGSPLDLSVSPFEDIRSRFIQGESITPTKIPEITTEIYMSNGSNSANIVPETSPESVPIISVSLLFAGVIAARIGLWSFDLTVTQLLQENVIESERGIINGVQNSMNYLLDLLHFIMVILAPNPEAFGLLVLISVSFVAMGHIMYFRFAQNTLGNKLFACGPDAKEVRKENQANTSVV
# Test: ferroportin internalization assay (inhibition of hepcidin-induced internalization of Fpn)
# Assay type: cell-based
# Details: MDCK-FPN-HaloTag cells, 100 nM hepcidin, overnight incubation; concentration range from 0.04 to 40 μM
# In short: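 MDCK cells stably expressing human ferroportin–HaloTag were labelled with TMR ligand, then incubated overnight at 37 °C with compound plus 100 nM hepcidin (final). After fixation and nuclear staining, confocal imaging quantified membrane Fpn fluorescence to measure blocking of hepcidin-induced internalization.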
row,SMILES,IC50 [nM]
1,"COc1ccccc1C1c2ccc3cccnc3c2NS(=O)(=O)N1C (stereo not shown) [Example 384, 1-(2-Methoxy-phenyl)-2-methyl-1,4-dihydro-2H-3-thia-2,4,5-triaza-phenanthrene 3,3-dioxide]",1870
2,"O=S(=O)(Nc1cccc2cccnc12)c1cnc2ccccc2c1 [Example 88, Quinoline-3-sulfonic acid quinolin-8-ylamide]",2060
3,"Cc1cc(F)ccc1C1c2ccc3cccnc3c2NS(=O)(=O)N1C (stereo not shown) [Example 395, 1-(4-Fluoro-2-methyl-phenyl)-2-methyl-1,4-dihydro-2H-3-thia-2,4,5-triaza-phenanthrene 3,3-dioxide]",1500
4,"O=S1(=O)Nc2c(ccc3cccnc23)-c2cccnc21 [Example 318, 11H-12-Thia-1,10,11-triaza-chrysene 12,12-dioxide]",6150
5,"Cc1cc2c(cc1F)-c1ccc3cccnc3c1NS2(=O)=O [Example 331, 9-Fluoro-8-methyl-5H-6-thia-4,5-diaza-chrysene 6,6-dioxide]",3240
6,"CNC(=O)c1ccnc2c(NS(=O)(=O)c3ccccc3)cccc12 [Example 538, 8-Benzenesulfonylamino-quinoline-4-carboxylic acid methylamide]",6240
7,"N#Cc1ccc2c(c1)-c1ccc3cccnc3c1NS2(=O)=O [Example 308, 6,6-Dioxo-5,6-dihydro-6λ*6*-thia-4,5-diaza-chrysene-9-carbonitrile]",2830
8,"O=S(=O)(Nc1cc(F)c(F)c2cccnc12)c1ccccc1 [Example 97, N-(5,6-Difluoro-quinolin-8-yl)-benzenesulfonamide]",8000
9,"O=S(=O)(Nc1ccc(Cl)c2cccnc12)c1ccccc1 [Example 25, N-(5-Chloro-quinolin-8-yl)-benzenesulfonamide]",1670
10,"O=S1(=O)Nc2c(ccc3cccnc23)-c2ccc(C(F)(F)F)cc21 [Example 332, 8-Trifluoromethyl-5H-6-thia-4,5-diaza-chrysene 6,6-dioxide]",2340
11,"O=S(=O)(Nc1ccc(Cl)c2cccnc12)c1cccnc1 [Example 60, Pyridine-3-sulfonic acid (5-chloro-quinolin-8-yl)-amide]",1780
12,"O=S(=O)(Nc1cccc2cccnc12)c1ccccc1Cl [Example 11, 2-Chloro-N-quinolin-8-yl-benzenesulfonamide]",8000
13,"O=S1(=O)Nc2c(ccc3cccnc23)C(c2ccc(F)cc2)N1 (stereo not shown) [Example 398, 1-(4-Fluoro-phenyl)-1,4-dihydro-2H-3-thia-2,4,5-triaza-phenanthrene 3,3-dioxide]",2780
14,"O=S(=O)(Nc1cccc2cccnc12)c1ccc(Cl)cc1Cl [Example 41, 2,4-Dichloro-N-quinolin-8-yl-benzenesulfonamide]",989
15,"O=S1(=O)Nc2c(ccc3cccnc23)-c2cc(C(F)(F)F)ccc21 [Example 78, 9-Trifluoromethyl-5H-6-thia-4,5-diaza-chrysene 6,6-dioxide]",130
16,"Cc1ccc(NS(=O)(=O)c2ccccc2)c2ncccc12 [Example 90, N-(5-Methyl-quinolin-8-yl)-benzenesulfonamide]",1100
17,"COc1ccnc2c3c(ccc12)-c1cc(C(F)(F)F)ccc1S(=O)(=O)N3 [Example 109, 1-Methoxy-9-trifluoromethyl-5H-6-thia-4,5-diaza-chrysene 6,6-dioxide]",979
18,"COC(=O)c1ccnc2c3c(ccc12)-c1ccccc1S(=O)(=O)N3 [Example 319, 6,6-Dioxo-5,6-dihydro-6λ*6*-thia-4,5-diaza-chrysene-1-carboxylic acid methyl ester]",2940
19,"O=S1(=O)Nc2c(ccc3c(Cl)ccnc23)-c2ccccc21 [Example 305, 1-Chloro-5H-6-thia-4,5-diaza-chrysene 6,6-dioxide]",12500
20,"O=S1(=O)Nc2c(cc(Cl)c3cccnc23)-c2cc(N3CCC(O)CC3)ccc21 [Example 504, 1-(12-Chloro-6,6-dioxo-5,6-dihydro-6λ*6*-thia-4,5-diaza-chrysen-9-yl)-piperidin-4-ol]",1100
21,"O=S1(=O)Nc2c(cc(F)c3cccnc23)-c2ccccc21 [Example 324, 12-Fluoro-5H-6-thia-4,5-diaza-chrysene 6,6-dioxide]",1390
22,"CN1C(c2ccc(F)c(CNCCN3CCOCC3)c2)c2ccc3cccnc3c2NS1(=O)=O (stereo not shown) [Example 426, [2-Fluoro-5-(2-methyl-3,3-dioxo-1,2,3,4-tetrahydro-3λ*6*-thia-2,4,5-triaza-phenanthren-1-yl)-benzyl]-(2-morpholin-4-yl-ethyl)-amine]",8560

row,SMILES,IC50 [nM]
1,"Cc1cnc2c(NS(=O)(=O)c3ccccc3)cccc2c1 [Example 45, N-(3-Methyl-quinolin-8-yl)-benzenesulfonamide]",610
2,"Cc1c(Cl)cccc1S(=O)(=O)Nc1cccc2cccnc12 [Example 68, 3-Chloro-2-methyl-N-quinolin-8-yl-benzenesulfonamide]",4000
3,"O=S(=O)(Nc1cccc2cccnc12)c1ccccc1OC(F)(F)F [Example 36, N-Quinolin-8-yl-2-trifluoromethoxy-benzenesulfonamide]",2500
4,"COCCN(C)c1cc2c(c3ncccc13)NS(=O)(=O)c1ccccc1-2 [Example 554, (6,6-Dioxo-5,6-dihydro-6λ*6*-thia-4,5-diaza-chrysen-12-yl)-(2-methoxy-ethyl)-methyl-amine]",550
5,"COC(=O)c1ccc2c(c1)-c1ccc3cccnc3c1NS2(=O)=O [Example 307, 6,6-Dioxo-5,6-dihydro-6λ*6*-thia-4,5-diaza-chrysene-9-carboxylic acid methyl ester]",4180
6,"Nc1ccccc1S(=O)(=O)Nc1cccc2cccnc12 [Example 8, 2-Amino-N-quinolin-8-yl-benzenesulfonamide]",20800
7,"O=S1(=O)Nc2c(c(F)cc3cccnc23)-c2ccccc21 [Example 323, 11-Fluoro-5H-6-thia-4,5-diaza-chrysene 6,6-dioxide]",3570
8,"O=C(c1ccc2c(c1)-c1cc(Cl)c3cccnc3c1NS2(=O)=O)N1CCC(O)C1 (stereo not shown) [Example 531, (12-Chloro-6,6-dioxo-5,6-dihydro-6λ*6*-thia-4,5-diaza-chrysen-9-yl)-(3-hydroxy-pyrrolidin-1-yl)-methanone]",15000
9,"O=S(=O)(Nc1ccc(Cl)c2cccnc12)c1ccc(Cl)cc1F [Example 54, 4-Chloro-N-(5-chloro-quinolin-8-yl)-2-fluoro-benzenesulfonamide]",1380
10,"CN(C)CCNc1cc2c(c3ncccc13)NS(=O)(=O)c1ccccc1-2 [Example 546, N′-(6,6-Dioxo-5,6-dihydro-6λ*6*-thia-4,5-diaza-chrysen-12-yl)-N,N-dimethyl-ethane-1,2-diamine]",9980
11,"COc1cc(NS(=O)(=O)c2ccc(Cl)cc2F)c2ncccc2c1 [Example 57, 4-Chloro-2-fluoro-N-(6-methoxy-quinolin-8-yl)-benzenesulfonamide]",1750
12,"COC(=O)c1ccccc1S(=O)(=O)Nc1cccc2cccnc12 [Example 39, 2-(Quinolin-8-ylsulfamoyl)-benzoic acid methyl ester]",58100
13,"Cc1cc2c(c3ncccc13)NS(=O)(=O)c1ccccc1-2 [Example 107, 12-Methyl-5H-6-thia-4,5-diaza-chrysene 6,6-dioxide]",599
14,"Nc1ccc2c(c1)-c1cc(Cl)c3cccnc3c1NS2(=O)=O [Example 519, 12-Chloro-6,6-dioxo-5,6-dihydro-6λ*6*-thia-4,5-diaza-chrysen-9-ylamine]",3570
15,"O=S(=O)(Nc1cc(OC(F)(F)F)cc2cccnc12)c1ccccn1 [Example 235, Pyridine-2-sulfonic acid (6-trifluoromethoxy-quinolin-8-yl)-amide]",1090
16,"O=S(=O)(Nc1cccc2cccnc12)c1cccc(C(F)(F)F)c1 [Example 44, N-Quinolin-8-yl-3-trifluoromethyl-benzenesulfonamide]",720
17,"Cc1cnc2c(NS(=O)(=O)c3ccc(C(F)(F)F)cc3N)cccc2c1 [Example 73, 2-Amino-N-(3-methyl-quinolin-8-yl)-4-trifluoromethyl-benzenesulfonamide]",3000
18,"Cc1cccc2c1S(=O)(=O)Nc1c-2ccc2cccnc12 [Example 335, 7-Methyl-5H-6-thia-4,5-diaza-chrysene 6,6-dioxide]",3880
19,"CN(C)C(=O)c1ccc2c(c1)-c1cc(Cl)c3cccnc3c1NS2(=O)=O [Example 525, 12-Chloro-6,6-dioxo-5,6-dihydro-6λ*6*-thia-4,5-diaza-chrysene-9-carboxylic acid dimethylamide]",4060
20,"COc1cc(NS(=O)(=O)c2cccnc2)c2ncccc2c1 [Example 59, Pyridine-3-sulfonic acid (6-methoxy-quinolin-8-yl)-amide]",2800
21,"CN1C(c2ccc(F)c(C(=O)O)c2)c2ccc3cccnc3c2NS1(=O)=O (stereo not shown) [Example 424, 2-Fluoro-5-(2-methyl-3,3-dioxo-1,2,3,4-tetrahydro-3λ*6*-thia-2,4,5-triaza-phenanthren-1-yl)-benzoic acid]",5430
